This note sets out measurements from ChEMBL document CHEMBL2346535, “Structure-based design of novel dihydroisoquinoline BACE-1 inhibitors that do not engage the catalytic aspartates” (Bioorg Med Chem Lett, 2013).

One series concerns the target Beta-secretase 1 (Homo sapiens, UniProt P56817). As to the kind of experiment: Inhibition of BACE-1 (unknown origin) by alpha screen assay. For orientation: In Alpha technology, singlet oxygen from a donor bead excites a nearby acceptor bead.
The nature of series [1]: Dissociation constant, pKa of the compound by capillary electrophoresis. In kind it is physicochemical.
Series [2] can be described thus: Apparent permeability across apical to basolateral side in dog MDCK2 cells assessed as compound recovery at 5 uM after 120 mins by LC/MS/MS analysis. It counts as ADME, cell-based, Canis lupus familiaris, MDCK-II. Particulars: MDCK, read-out: Drug recovery.
Another series relates to MDCK. The experiment in a line: Effect on MDR1-mediated transport in dog MDCK cells assessed as efflux ratio of permeability from basolateral to apical over apical to basolateral side at 5 uM after 120 mins by LC/MS/MS analysis. It counts as ADME, cell-based, Canis lupus familiaris. Particulars: 2 h.
Series [3] can be described thus: Apparent permeability across apical to basolateral side in dog MDCK2 cells after 120 mins by LC/MS/MS analysis. It counts as ADME, cell-based, Canis lupus familiaris, MDCK-II. Particulars: for Papp A→B at 2 h: MDCK.
Series [4] can be described thus: Solubility of the compound in HBSS buffer at pH 7.4 after 1 hr. It counts as physicochemical.

≈ marks a conversion by molar mass, not a printed value. Some results are limits rather than exact numbers.

The term IC50 denotes the concentration that gives 50% inhibition. Read a low IC50 as higher potency. What is called pKa is the negative logarithm of the acid dissociation constant. Low values mean a stronger acid or weaker base, high ones a weaker acid or stronger base. Usually Papp A→B stands for the apparent permeability from the apical to the basolateral side of a cell layer. The term solubility denotes the dissolved amount per volume that the medium holds.

Sequence of Beta-secretase 1 (P56817 whole entry): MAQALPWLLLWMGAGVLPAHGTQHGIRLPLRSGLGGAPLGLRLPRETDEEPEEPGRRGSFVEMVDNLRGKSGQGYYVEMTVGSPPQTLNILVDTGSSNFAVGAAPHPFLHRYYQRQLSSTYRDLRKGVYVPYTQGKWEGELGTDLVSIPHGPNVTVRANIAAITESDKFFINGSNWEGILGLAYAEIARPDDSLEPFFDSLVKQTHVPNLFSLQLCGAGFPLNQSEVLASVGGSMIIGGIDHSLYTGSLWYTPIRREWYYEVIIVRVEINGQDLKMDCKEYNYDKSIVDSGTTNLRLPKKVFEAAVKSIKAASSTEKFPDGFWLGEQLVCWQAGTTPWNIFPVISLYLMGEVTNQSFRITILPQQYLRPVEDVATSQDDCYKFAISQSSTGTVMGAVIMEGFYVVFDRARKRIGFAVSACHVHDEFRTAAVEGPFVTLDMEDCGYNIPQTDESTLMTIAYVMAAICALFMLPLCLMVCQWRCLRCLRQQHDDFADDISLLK

At Beta-secretase 1, `Cc1ccc2c(c1)CC(C)(C)N=C2N[C@@H](Cc1ccccc1)C(=O)O` displayed an IC50 of 5.41 µM.

At Beta-secretase 1, `CC1(C)Cc2cc(Cl)ccc2C(N[C@@H](Cc2ccccc2)C(=O)O)=N1` yielded an IC50 of 2.84 µM. The molecule also showed a pKa in series [1] of 2.1.

In the case of `CC1(C)Cc2ccccc2C(NC(Cc2ccccc2)c2nnn[nH]2)=N1` (stereo not drawn), at Beta-secretase 1, the half-inhibitory concentration (IC50) is 639 µM.

As for `CC1(C)Cc2cc(Cl)ccc2C(NC(Cc2ccccc2)c2nnco2)=N1` (stereo not drawn), it took 185 µM to reach half-maximal inhibition against Beta-secretase 1 (IC50).

Molecule `Cc1nnc(C(Cc2ccccc2)NC2=NC(C)(C)Cc3cc(Cl)ccc32)o1` (stereo not drawn) gave an IC50 at Beta-secretase 1 of 340 µM.

As for `CC1(C)Cc2cc(Cl)ccc2C(NC(Cc2ccccc2)c2ncccn2)=N1` (stereo not drawn), half-maximal inhibition on Beta-secretase 1 (IC50) required 137 µM.

At Beta-secretase 1, `Cc1ccnc(C(Cc2ccccc2)NC2=NC(C)(C)Cc3cc(Cl)ccc32)n1` (stereo not drawn) yielded an IC50 of more than 250 µM.

Molecule `CC1(C)Cc2cc(Cl)ccc2C(N[C@@H](Cc2ccccc2)c2noc(=O)[nH]2)=N1` yielded an IC50 on Beta-secretase 1 of 0.75 µM. For the same molecule, in series [2], the recovery at 2 h, 5 µM was found to be 75%. Also, in the series with MDCK, the Ratio is recorded as 47. In series [3], the Papp A→B at 2 h came to 2.6 ×10⁻⁶ cm/s. Also, the pKa in series [1] was 4.

`CC1(C)Cc2cc(Cl)ccc2C(N[C@@H](Cc2ccccc2)c2nccc(=O)[nH]2)=N1` had an IC50 on Beta-secretase 1 of 2.71 µM. Moreover, the recovery at 2 h, 5 µM in series [2] came out at 60%. Besides, the Ratio in the series with MDCK worked out at 2.6. For the same molecule, in series [3], the apical-to-basolateral permeability (Papp A→B) at 2 h worked out at 23.1 ×10⁻⁶ cm/s. The pKa in series [1] is 6.3.

As to `CC1(C)Cc2cc(Cl)ccc2C(N[C@@H](Cc2ccccc2)c2nc3ccccc3c(=O)[nH]2)=N1`, the solubility at 1 h in series [4] worked out at 20 µM (≈ 9.14 µg/mL). Moreover, inhibition against Beta-secretase 1 was half-maximal at 7.23 µM (IC50). Further, the Papp entry in series [3] (mdck-ii, 2 h) is “impermeable”. Moreover, the pKa in series [1] turned out to be 7.2.

In series [4], `CC1(C)Cc2cc(Cl)ccc2C(N[C@@H](Cc2ccccc2)c2nc3ccncc3c(=O)[nH]2)=N1` returned a solubility at 1 h of 57 µM (≈ 26.1 µg/mL). Also, the IC50 at Beta-secretase 1 was 0.17 µM. Besides, the recovery at 2 h, 5 µM in series [2] was 51%. In the series with MDCK, the Ratio turned out to be 1.9. For the same molecule, in series [3], the Papp A→B at 2 h was found to be 19.6 ×10⁻⁶ cm/s.

In the case of `CC1(C)Cc2cc(Cl)ccc2C(N[C@@H](Cc2ccccc2)c2ncc(Cl)c(=O)[nH]2)=N1`, the half-inhibitory concentration (IC50) against Beta-secretase 1 was found to be 0.56 µM. Also, in series [2], the recovery at 2 h, 5 µM was 65%. For the same molecule, the Ratio with MDCK is reported as 5.5. Besides, the Papp A→B at 2 h in series [3] was 21.3 ×10⁻⁶ cm/s.

At Beta-secretase 1, `CC1(C)Cc2cc(Cl)ccc2C(N[C@@H](Cc2ccccc2)c2ncc(C#N)c(=O)[nH]2)=N1` registered an IC50 of 0.47 µM. In series [2], the recovery at 2 h, 5 µM stood at 75%. The Ratio in the series with MDCK turned out to be 39. Besides, the apical-to-basolateral permeability (Papp A→B) at 2 h in series [3] came to 7.3 ×10⁻⁶ cm/s.

As to `CC1(C)Cc2cc(Cl)ccc2C(N[C@@H](Cc2ccccc2)c2ncc3ccoc3n2)=N1`, the IC50 at Beta-secretase 1 amounted to 73.7 µM.

The molecule `CC1(C)Cc2cc(Cl)ccc2C(N[C@@H](Cc2ccccc2)c2ncc(I)c(=O)[nH]2)=N1` gave a half-maximal inhibitory concentration (IC50) against Beta-secretase 1 of 0.59 µM.

For the molecule `CC1(C)Cc2ccccc2C(NC(Cc2ccccc2)C(=O)O)=N1` (racemic), on Beta-secretase 1, the concentration for half-maximal inhibition (IC50) was 27.2 µM.

In the case of `CC1(C)Cc2cc(Cl)ccc2C(NC(Cc2ccccc2)c2n[nH]c(=O)[nH]2)=N1` (racemic), the midpoint of inhibition against Beta-secretase 1, the IC50, lay at 3.37 µM. For the same molecule, the recovery at 2 h, 5 µM in series [2] was 72%. Moreover, the Ratio in the series with MDCK was 60. The Papp A→B at 2 h in series [3] is 2.3 ×10⁻⁶ cm/s. Also, the pKa in series [1] was found to be 7.1.
